This is an account of results in article PMC2628638, “Catalytic inhibition of topoisomerase II by a novel rationally designed ATP-competitive purine analogue” (BMC Chemical Biology, 2009).

In experiment [1] the target is topoisomerase II alpha (Homo sapiens, UniProt P11388). As to the kind of experiment: Affinity precipitation with biotinylated purine analogue 2 from HL-60 nuclear extracts. The experiment is classed as binding. Further details: endogenous in cells; host or cells: HL-60 nuclear extract. The conditions noted are these: 1 μM biotinylated analogue 2; competitor in excess (10 μM), QAP 1 also at equimolar concentration. The procedure:
Topoisomerase II α and β were affinity precipitated with biotinylated inhibitor as follows. Exponentially growing HL-60 cells were collected on ice and incubated with hypotonic buffer (10 mM HEPES pH 7.5, 1.5 mM MgCl2, 10 mM KCl, 0.5 mM DTT, 0.5 mM PMSF, 1× protease inhibitor cocktail (Complete Mini, Roche Diagnostics GmbH)) for 15 minutes, then 0.6% v/v NP-40 was added and cells were disrupted using a Dounce homogenizer. Lysates were transferred to 1.5 ml Protein LoBind Eppendorf tubes and nuclei were collected after centrifugation at 8000 rpm for 10 minutes and washed twice with hypotonic buffer. To extract and release chromatin associated topoisomerase II nuclei were incubated for 30 minutes in DNAse buffer (20 mM Tris HCl pH 7.5, 5 mM MgCl2, 1 mM CaCl2, 25 mM NaCl, 0.5 mM EDTA, 1% NP-40, 1 mM DTT, 1 × protease inhibitor cocktail, 0.1 mM PMSF) containing 40 U DNAse I (Roche Diagnostics GmbH) followed by addition of twice concentrated nuclear extraction buffer (20 mM HEPES pH 7.5, 3 mM MgCl2, 20 mM KCl, 50 mM β-glycerophosphate, 840 mM NaCl, 1 mM EDTA, 50 mM PNPP, 1 mM DTT, 1 mM PMSF) and rotation for 1 h in the coldroom. The soluble fraction was obtained following centrifugation at 13000 rpm for 15 minutes. 25 μg nuclear extract were used for the affinity precipitation. The salt concentration was adjusted to 150 mM with nuclear extraction buffer (without NaCl) and the sample volume was toped off to 200 μl with precipitation buffer (50 mM HEPES pH 7.4, 150 mM NaCl, 25 mM β-glycerophosphate, 25 mM NaF, 5 mM EGTA, 1 mM EDTA, 15 mM PPI, 1 mM PMSF). Compounds were preincubated for 30 minutes prior addition of biotinylated purine analogue 2 for 2 h. Streptavidin agarose beads (Novagen, 69203) were washed twice with PBS, blocked for 30 minutes with PBS containing 1% BSA, washed twice with PBS and finally with precipitation buffer. 40 μl equilibrated streptavidin agarose beads were added to the sample and incubation was continued for 1 h. Beads were pelleted by centrifugation at 7000 rpm for 5 minutes and washed thrice with precipitation buffer. During the last wash the beads were transferred to a new tube and the bound fraction was released by boiling for 5 minutes in Laemmli sample buffer. Topoisomerase II α and β were detected by Western blot as described below.

Experiment [2] concerns the target CDK1/CycB (Homo sapiens, UniProt P06493). As to the kind of experiment: Radiometric filter binding kinase assay. It is filed as biochemical. From the text: (§1) Based on homology structural models of the target, a purine scaffold was designed interactively using the Macromodel modeling software. The designed purine scaffold was subsequently used as a substructure query to search the Novartis compound collection. Around 50 molecules were retrieved in this manner and screened in an ATPase assay using purified full length tagged human topoisomerase II alpha. […] Subsequently, we carried out kinetic analysis with QAP 1 in order to corroborate the mode of action. […] The data were analyzed by non-linear regression analysis using the equations corresponding to competitive, uncompetitive, and mixed inhibition (see Methods) and a statistical analysis (F-test; p ≤ 0.05) was carried out to identify the best model. […] A linearized representation (Eady-Hofstee) of one of these experiments is depicted in Figure 1D. To confirm the mode of action of QAP 1, inhibition studies were also carried out in the presence of different concentration of the inhibitor at different ATP concentrations and the IC50 values were determined. […] Next, QAP 1 was tested against a panel of kinases in a radiometric assay. With the exception of subtle inhibition of the Ret and c-Src tyrosine kinases no effect of the compound was observed on other kinases in the panel, even at the highest concentration tested (Table 1). Thus, QAP 1 is a relatively potent inhibitor of topoisomerase II ATPase function with fairly good selectivity over various serine/threonine/tyrosine protein kinases. To test if QAP 1 inhibited topoisomerase II DNA strand passage activity, nuclear extracts of HL-60 leukemic cells were incubated with catenated kDNA in the presence of increasing concentrations of QAP 1.

Experiment [3] addresses Jak2 (Homo sapiens, UniProt O60674). Description: Radiometric filter binding kinase assay. It is filed as biochemical.
Source text: as §1

Experiment [4] deals with HER-1 (Homo sapiens, UniProt P00533). As to the kind of experiment: Radiometric filter binding kinase assay. The experiment is classed as biochemical.
Chain of HER-1 (P00533 25-1210, species assumed): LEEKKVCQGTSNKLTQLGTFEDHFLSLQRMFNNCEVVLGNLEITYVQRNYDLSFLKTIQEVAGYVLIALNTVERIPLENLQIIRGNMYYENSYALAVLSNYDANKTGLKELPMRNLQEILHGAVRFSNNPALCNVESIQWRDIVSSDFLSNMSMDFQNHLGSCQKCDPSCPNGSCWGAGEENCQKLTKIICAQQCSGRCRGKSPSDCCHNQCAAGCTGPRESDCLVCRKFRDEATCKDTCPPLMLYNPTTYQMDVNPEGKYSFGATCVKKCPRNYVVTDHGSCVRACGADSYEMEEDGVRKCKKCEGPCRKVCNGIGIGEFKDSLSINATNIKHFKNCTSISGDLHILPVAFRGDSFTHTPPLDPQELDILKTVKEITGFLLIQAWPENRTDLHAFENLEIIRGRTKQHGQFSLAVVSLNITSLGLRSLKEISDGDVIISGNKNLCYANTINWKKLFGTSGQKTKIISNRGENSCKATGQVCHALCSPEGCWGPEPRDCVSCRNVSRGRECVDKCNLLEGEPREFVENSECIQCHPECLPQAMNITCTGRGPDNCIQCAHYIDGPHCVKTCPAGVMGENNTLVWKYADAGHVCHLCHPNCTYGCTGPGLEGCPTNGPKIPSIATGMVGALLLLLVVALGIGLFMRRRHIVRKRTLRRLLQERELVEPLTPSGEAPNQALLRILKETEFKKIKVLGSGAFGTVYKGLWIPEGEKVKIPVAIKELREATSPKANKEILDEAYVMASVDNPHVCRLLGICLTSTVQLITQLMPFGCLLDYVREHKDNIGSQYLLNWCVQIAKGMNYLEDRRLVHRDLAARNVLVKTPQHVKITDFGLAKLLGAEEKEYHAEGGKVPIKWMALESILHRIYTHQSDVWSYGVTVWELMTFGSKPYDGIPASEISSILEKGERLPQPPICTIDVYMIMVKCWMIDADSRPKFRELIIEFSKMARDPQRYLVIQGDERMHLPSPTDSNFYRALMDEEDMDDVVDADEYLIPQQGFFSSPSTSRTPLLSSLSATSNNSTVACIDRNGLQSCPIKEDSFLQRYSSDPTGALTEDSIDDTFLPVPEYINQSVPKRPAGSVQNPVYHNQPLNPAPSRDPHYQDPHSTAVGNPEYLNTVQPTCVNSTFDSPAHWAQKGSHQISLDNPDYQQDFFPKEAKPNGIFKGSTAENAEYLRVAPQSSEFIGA
Source text: as §1

Experiment [5] concerns the target PDK1 (Homo sapiens, UniProt O15530). Description: Radiometric filter binding kinase assay. It is filed as biochemical.
Source text: as §1

The target in experiment [6] is Fak (Homo sapiens, UniProt Q05397). Description: Radiometric filter binding kinase assay. The experiment is classed as biochemical.
Source text: as §1

For experiment [7], the target named is c-Met (Homo sapiens, UniProt P08581). Description: Radiometric filter binding kinase assay. It is filed as biochemical.
Chain of c-Met (P08581 25-1390): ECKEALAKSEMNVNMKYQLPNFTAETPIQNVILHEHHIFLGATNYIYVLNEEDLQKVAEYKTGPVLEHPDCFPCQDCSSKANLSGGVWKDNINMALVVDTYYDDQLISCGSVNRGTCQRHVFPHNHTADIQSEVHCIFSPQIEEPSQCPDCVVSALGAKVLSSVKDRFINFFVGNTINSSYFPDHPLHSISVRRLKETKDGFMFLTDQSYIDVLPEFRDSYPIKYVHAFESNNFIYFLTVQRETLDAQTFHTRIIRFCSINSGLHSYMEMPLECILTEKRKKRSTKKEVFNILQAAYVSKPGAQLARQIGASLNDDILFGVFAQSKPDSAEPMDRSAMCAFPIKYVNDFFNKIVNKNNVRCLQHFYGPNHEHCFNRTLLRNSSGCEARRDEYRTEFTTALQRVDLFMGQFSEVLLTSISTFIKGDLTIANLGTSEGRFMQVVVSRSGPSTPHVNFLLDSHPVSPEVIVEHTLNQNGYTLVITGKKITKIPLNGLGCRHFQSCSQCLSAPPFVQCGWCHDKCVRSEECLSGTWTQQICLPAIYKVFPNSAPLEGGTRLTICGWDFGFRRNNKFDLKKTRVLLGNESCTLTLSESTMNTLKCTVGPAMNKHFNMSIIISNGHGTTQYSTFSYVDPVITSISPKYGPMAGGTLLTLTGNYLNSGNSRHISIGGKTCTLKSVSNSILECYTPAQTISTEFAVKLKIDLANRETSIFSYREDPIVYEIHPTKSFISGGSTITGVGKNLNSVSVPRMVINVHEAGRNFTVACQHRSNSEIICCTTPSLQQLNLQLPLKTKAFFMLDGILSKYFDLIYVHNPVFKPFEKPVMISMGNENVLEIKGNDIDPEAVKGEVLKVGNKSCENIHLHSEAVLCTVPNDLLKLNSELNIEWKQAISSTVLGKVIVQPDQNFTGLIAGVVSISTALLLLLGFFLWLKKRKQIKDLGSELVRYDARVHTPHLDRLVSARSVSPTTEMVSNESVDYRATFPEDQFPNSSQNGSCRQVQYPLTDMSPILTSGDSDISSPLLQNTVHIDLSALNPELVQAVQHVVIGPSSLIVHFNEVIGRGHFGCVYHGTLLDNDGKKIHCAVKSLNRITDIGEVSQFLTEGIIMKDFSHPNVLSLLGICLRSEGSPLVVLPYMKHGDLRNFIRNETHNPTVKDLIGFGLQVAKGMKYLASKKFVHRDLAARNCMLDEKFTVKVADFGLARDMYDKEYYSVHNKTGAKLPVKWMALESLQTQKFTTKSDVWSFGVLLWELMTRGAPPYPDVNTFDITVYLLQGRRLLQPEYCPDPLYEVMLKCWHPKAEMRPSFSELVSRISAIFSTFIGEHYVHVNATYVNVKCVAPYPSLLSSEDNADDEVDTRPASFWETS
Source text: as §1

The target of experiment [8] is BRAF-V600E (Homo sapiens, UniProt P15056, V600E). As to the kind of experiment: Radiometric filter binding kinase assay. It is filed as biochemical.
Chain of BRAF-V600E (P15056 whole entry V600E): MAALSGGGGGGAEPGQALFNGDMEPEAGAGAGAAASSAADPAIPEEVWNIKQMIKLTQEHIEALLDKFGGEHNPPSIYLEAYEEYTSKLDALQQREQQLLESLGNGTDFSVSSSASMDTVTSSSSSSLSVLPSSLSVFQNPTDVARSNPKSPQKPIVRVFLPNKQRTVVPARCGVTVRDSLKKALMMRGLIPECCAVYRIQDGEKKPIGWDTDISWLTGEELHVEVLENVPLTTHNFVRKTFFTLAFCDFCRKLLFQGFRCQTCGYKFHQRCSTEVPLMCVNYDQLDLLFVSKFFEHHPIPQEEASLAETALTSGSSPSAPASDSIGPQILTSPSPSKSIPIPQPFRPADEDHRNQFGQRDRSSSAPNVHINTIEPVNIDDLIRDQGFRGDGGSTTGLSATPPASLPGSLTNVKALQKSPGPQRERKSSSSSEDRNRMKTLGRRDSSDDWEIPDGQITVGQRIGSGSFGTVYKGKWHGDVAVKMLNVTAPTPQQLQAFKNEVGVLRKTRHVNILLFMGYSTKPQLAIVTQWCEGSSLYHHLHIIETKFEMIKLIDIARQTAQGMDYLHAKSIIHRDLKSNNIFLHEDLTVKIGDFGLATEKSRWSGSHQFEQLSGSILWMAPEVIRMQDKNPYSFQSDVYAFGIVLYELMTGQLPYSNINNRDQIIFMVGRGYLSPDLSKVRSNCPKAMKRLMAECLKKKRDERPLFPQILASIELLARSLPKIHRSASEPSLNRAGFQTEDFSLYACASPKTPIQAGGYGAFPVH
Source text: as §1

The subject of experiment [9] is HCC1937 BRCA1 mutant and HCC1937 BRCA1 reconstituted cells. As to the kind of experiment: Clonogenic growth assay (WST-1, colony counting). It is filed as cell-based. The procedure: HCC1937 BRCA1 mutant and HCC1937 BRCA1 reconstituted breast ductal carcinoma cells were cultured in RPMI-1640 medium supplemented with 10% fetal calf serum, 2 mM L-glutamine, 1 mM sodium pyruvate, 4.5 g/l glucose and 1% (v/v) penicillin/streptomycin. Status of BRCA1 was corroborated by immunoprecipitation using 50 μg nuclear extracts and 1 μg mouse monoclonal antibody MS110 (ab16780, Abcam Inc., Cambridge, MA), which is directed towards the amino-terminus of the protein. Blots were probed with BRCA1 carboxy-terminal specific mouse monoclonal antibody D9 (sc-6954, Santa Cruz Biotechnologies, Santa Cruz, CA) and, following stripping, re-probed with antibody MS110. For assays, 5000 cells in 3 ml medium were seeded per well of 6 well plates in duplicates. The day after, vehicle (DMSO) or compounds were added. After one week medium was exchanged and vehicle or compounds were re-added for an additional two days. To assess proliferation the medium in each well was replaced with 1 ml medium containing 100 μl WST-1 reagent and incubation for 20 minutes at 37°C. Of each sample 110 μl supernatant were transferred into a 96 well plate and the OD was read at 450 nm (filter at 630 nm) on a SpectraMax Plus microtiter plate reader using SoftMax Pro software (Molecular Devices). For background correction, the blank value consisted of 100 μl medium containing 10 μl WST-1. Thereafter, colonies were stained by removing medium, washing cells once with PBS and incubation with 1 ml crystal violet solution for 30 minutes at room temperature. Cells were washed twice with PBS and colonies were counted using an Artec Counter (Model 880, Artec, Dyntatech Laboratories Inc.) with diameter cut-off set to 0.2 mm. Data were expressed as growth or colony numbers relative to vehicle control treatments (100%).

SMILES strings stand for the structures.

Chain of Jak2 (O60674 whole entry, species assumed): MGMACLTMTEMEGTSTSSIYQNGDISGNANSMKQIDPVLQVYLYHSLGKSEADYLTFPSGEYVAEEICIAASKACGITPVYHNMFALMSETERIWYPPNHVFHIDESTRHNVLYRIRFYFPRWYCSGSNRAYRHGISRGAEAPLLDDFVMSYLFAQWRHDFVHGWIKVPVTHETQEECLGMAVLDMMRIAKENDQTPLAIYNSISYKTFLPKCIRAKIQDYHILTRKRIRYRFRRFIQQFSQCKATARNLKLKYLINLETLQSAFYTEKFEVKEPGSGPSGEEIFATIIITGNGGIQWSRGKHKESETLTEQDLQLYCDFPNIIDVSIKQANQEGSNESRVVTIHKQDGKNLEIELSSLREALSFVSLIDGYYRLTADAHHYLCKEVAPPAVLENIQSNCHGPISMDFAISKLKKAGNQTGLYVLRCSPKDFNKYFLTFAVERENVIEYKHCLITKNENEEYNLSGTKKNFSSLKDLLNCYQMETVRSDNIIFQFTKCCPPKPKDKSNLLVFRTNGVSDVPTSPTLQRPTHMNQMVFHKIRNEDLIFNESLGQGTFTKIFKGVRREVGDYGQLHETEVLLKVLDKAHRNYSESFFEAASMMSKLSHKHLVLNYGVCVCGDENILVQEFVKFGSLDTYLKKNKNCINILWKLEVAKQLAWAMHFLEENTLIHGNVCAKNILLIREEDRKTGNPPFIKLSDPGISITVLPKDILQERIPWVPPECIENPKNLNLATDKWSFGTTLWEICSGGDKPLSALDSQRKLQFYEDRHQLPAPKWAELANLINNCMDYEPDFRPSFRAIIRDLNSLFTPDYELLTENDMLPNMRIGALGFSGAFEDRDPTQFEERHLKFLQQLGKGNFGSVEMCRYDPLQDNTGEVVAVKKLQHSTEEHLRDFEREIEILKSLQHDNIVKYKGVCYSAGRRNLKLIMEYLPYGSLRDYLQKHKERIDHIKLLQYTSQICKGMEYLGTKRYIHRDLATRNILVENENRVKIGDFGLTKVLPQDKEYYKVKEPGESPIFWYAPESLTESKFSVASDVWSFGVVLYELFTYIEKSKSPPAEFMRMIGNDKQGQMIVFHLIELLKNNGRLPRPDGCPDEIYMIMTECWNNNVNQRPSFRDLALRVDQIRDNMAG
Chain of PDK1 (O15530 whole entry): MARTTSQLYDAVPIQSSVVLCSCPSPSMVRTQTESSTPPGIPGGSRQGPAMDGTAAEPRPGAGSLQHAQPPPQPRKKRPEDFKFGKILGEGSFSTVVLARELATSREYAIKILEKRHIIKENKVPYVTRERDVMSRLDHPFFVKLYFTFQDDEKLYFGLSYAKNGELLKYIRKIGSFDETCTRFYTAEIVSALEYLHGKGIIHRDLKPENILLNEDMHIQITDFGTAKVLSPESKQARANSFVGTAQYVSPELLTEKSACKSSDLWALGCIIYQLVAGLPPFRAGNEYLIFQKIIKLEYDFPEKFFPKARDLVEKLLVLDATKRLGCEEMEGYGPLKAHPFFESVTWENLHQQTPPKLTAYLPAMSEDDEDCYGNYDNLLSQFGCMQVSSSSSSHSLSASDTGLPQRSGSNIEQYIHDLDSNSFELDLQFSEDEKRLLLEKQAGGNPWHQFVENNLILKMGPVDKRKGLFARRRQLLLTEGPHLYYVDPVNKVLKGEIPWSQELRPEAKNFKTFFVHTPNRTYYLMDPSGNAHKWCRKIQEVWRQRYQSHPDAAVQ

Take `CCc1nc2nc(Nc3ccc4nc(OCCN5CCOCC5)ccc4c3)nc(NC(C)(C)C)c2[nH]1` [QAP 1]: in experiment [1], the “competition of the interaction of biotinylated purine analogue 2 with topoisomerase II alpha” value is “abolished”. Besides, the IC50 in experiment [2], in [3], in experiment [4], in [5], in experiment [6] and in experiment [7] was greater than 10 µM throughout. Moreover, the IC50 in experiment [8] is greater than 10 µM. For the same molecule, the “colony formation of BRCA1 mutant cells” value in experiment [9] (5 μM, 9 days) is “striking suppression”. Also, in [9] (continuous treatment for 9 days, WST-1 and colony numbers), the “sensitivity of BRCA1 mutant versus BRCA1 reconstituted HCC1937 cells” value is recorded as “differential antiproliferative effect”.

In general, IC50 refers to the concentration at which inhibition is half-maximal. Higher therefore signals weaker potency.
